Legend:
GSPT1 = experiment: Western blot, degradation of substrate protein in hPBMCs; type: cell-based, Human
[1] = target: T1, human Cereblon WT GST-tagged protein (Homo sapiens, UniProt Q96SW2); experiment: CRBN-binding affinity, HTRF (CEREBLON BINDING kit); details: for inhibition at 0.5 µM: read-out: Inhibition Rate at 0.5 µM (%); for inhibition at 2 µM: read-out: Inhibition Rate at 2 µM (%)
T1 construct: purchased CISBIO 64BDCRBNPEH

IKZF1 = target: T2, IKZF1 (Homo sapiens, UniProt Q13422+Q96SW2); experiment: Western blot, degradation of substrate protein in hPBMCs; type: cell-based
T2 construct: effects of the compounds of the present disclosure on the expression of target proteins in cells; endogenous in cells; host or cells: human PBMCs (Milecell Biotechnologies)
T2 sequence (Q13422 whole entry): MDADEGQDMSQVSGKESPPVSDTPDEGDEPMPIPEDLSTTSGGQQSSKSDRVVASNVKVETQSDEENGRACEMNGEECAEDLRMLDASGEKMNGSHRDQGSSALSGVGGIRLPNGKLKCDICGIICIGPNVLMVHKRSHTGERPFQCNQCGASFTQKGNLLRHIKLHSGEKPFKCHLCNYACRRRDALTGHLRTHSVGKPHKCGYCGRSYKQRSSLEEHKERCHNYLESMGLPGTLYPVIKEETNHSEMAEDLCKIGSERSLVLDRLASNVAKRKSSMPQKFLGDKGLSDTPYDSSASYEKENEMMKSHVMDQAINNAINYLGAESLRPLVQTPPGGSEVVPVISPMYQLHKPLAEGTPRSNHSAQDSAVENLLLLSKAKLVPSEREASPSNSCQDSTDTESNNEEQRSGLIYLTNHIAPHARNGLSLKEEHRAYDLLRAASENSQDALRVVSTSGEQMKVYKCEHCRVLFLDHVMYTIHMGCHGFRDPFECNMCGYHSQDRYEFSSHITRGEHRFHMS
T2 sequence (Q96SW2 whole entry): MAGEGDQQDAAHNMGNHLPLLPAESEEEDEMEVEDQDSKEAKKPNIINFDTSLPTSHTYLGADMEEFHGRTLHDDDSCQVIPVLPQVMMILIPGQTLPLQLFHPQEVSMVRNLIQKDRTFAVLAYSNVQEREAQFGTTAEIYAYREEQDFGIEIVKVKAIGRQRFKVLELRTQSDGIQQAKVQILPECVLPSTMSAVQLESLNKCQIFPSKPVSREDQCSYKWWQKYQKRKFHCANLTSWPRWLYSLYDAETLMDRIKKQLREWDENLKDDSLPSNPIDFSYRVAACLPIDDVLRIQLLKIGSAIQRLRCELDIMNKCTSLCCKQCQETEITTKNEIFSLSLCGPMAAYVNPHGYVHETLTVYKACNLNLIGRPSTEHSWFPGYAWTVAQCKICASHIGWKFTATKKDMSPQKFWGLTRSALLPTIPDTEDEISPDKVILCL
T2 sequence (Q16531 whole entry partner): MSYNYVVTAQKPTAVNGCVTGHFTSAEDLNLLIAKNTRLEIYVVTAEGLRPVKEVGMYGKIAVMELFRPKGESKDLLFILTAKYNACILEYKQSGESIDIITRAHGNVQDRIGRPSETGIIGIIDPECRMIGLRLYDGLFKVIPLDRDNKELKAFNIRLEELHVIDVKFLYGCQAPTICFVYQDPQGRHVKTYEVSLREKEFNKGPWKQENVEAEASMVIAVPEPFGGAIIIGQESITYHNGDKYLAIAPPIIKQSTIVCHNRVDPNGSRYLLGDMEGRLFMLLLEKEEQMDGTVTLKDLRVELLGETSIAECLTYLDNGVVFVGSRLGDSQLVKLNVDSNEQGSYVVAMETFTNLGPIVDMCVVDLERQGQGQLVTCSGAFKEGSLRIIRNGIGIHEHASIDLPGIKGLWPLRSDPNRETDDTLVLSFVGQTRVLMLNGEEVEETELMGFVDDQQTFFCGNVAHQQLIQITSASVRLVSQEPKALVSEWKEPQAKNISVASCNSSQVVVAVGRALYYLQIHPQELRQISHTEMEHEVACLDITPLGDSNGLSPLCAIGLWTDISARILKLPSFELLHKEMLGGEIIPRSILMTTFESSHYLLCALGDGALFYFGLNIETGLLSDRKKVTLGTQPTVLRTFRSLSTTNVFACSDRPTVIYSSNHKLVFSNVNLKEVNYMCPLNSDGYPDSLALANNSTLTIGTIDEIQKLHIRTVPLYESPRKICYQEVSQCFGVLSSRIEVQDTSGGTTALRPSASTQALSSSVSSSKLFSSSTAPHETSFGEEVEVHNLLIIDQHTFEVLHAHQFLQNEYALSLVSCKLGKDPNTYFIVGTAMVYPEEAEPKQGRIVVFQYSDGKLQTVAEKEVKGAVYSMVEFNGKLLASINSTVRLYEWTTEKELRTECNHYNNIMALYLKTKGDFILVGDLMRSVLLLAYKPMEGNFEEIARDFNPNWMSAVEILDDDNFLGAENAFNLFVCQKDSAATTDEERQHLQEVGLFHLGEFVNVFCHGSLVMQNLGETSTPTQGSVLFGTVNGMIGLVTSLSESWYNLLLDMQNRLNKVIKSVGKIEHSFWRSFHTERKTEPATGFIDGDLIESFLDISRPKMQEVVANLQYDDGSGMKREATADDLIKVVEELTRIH

WEE1 = target: T3, WEE1 (Homo sapiens, UniProt P30291+Q96SW2); experiment: as above; type: cell-based
T3 construct: effects of the compounds of the present disclosure on the expression of target proteins in cells; endogenous in cells; host or cells: human PBMCs (Milecell Biotechnologies)
T3 sequence (P30291 whole entry): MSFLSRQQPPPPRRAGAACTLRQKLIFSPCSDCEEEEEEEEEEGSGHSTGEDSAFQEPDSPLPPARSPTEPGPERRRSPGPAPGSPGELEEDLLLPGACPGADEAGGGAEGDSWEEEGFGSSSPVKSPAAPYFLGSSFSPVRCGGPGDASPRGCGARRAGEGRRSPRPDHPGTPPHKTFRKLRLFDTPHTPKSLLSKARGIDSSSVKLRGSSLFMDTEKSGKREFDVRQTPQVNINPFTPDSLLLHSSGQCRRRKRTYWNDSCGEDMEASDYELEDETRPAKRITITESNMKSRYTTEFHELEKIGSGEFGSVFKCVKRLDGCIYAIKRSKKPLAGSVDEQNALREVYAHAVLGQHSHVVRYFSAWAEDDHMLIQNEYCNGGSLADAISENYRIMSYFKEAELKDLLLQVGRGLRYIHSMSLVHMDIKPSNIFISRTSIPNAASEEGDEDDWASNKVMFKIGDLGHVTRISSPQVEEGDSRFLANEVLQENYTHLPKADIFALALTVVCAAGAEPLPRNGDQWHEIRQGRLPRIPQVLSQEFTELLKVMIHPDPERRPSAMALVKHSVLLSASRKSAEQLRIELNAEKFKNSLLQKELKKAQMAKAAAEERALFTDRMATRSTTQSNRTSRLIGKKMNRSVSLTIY
T3 sequence (Q96SW2 whole entry): as the sequence (Q96SW2 whole entry) above
T3 sequence (Q16531 whole entry partner): as the sequence (Q16531 whole entry partner) above

IKZF3 = target: T4, IKZF3 (Homo sapiens, UniProt Q96SW2+Q9UKT9); experiment: as above; type: cell-based
T4 construct: effects of the compounds of the present disclosure on the expression of target proteins in cells; endogenous in cells; host or cells: human PBMCs (Milecell Biotechnologies)
T4 sequence (Q9UKT9 whole entry): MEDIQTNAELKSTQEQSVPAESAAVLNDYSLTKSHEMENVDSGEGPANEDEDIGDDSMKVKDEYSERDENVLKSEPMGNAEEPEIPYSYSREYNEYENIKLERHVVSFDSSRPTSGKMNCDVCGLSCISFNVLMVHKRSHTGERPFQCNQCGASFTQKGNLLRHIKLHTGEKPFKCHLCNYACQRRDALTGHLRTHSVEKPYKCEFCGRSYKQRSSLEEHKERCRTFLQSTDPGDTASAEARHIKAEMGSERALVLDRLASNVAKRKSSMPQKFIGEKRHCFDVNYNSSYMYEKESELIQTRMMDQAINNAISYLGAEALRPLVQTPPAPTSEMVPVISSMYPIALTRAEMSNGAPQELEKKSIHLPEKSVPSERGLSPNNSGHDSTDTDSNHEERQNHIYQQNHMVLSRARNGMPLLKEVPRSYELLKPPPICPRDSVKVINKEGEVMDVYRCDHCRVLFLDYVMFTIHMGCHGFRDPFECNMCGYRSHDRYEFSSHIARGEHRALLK
T4 sequence (Q96SW2 whole entry): as the sequence (Q96SW2 whole entry) above
T4 sequence (Q16531 whole entry partner): as the sequence (Q16531 whole entry partner) above

CK1α = target: T5, CK1α (Homo sapiens, UniProt P48729+Q96SW2); experiment: as above; type: cell-based
T5 construct: effects of the compounds of the present disclosure on the expression of target proteins in cells; endogenous in cells; host or cells: human PBMCs (Milecell Biotechnologies)
T5 sequence (P48729 whole entry): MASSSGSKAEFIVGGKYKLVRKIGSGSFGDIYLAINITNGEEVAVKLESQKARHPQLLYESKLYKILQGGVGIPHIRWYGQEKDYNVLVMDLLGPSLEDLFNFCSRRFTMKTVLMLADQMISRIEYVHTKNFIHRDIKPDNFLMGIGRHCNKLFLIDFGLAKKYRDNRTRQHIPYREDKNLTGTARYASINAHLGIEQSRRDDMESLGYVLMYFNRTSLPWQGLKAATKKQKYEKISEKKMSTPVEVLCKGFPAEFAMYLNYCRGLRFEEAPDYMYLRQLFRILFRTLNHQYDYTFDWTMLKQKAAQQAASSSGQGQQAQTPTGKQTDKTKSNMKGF
T5 sequence (Q96SW2 whole entry): as the sequence (Q96SW2 whole entry) above
T5 sequence (Q16531 whole entry partner): as the sequence (Q16531 whole entry partner) above

IKZF2 = target: T6, IKZF2 (Homo sapiens, UniProt Q96SW2+Q9UKS7); experiment: as above; type: cell-based
T6 construct: effects of the compounds of the present disclosure on the expression of target proteins in cells; endogenous in cells; host or cells: human PBMCs (Milecell Biotechnologies)
T6 sequence (Q9UKS7 whole entry): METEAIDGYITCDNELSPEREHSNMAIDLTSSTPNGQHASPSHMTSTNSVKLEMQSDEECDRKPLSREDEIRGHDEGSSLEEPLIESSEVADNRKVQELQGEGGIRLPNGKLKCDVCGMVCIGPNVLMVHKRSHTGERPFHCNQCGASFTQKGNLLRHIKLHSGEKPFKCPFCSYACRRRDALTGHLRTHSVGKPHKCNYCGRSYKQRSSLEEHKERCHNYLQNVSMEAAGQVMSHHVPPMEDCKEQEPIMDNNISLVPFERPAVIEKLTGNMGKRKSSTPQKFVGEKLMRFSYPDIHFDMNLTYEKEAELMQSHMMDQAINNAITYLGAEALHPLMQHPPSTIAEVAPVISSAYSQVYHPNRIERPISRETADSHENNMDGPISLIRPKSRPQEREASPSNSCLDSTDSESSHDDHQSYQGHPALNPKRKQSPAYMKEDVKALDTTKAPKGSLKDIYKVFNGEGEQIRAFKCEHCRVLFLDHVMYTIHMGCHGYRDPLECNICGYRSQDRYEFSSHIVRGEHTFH
T6 sequence (Q96SW2 whole entry): as the sequence (Q96SW2 whole entry) above
T6 sequence (Q16531 whole entry partner): as the sequence (Q16531 whole entry partner) above

[2] = 24 hours treatment, compounds at 50 nM and 500 nM (concentration behind the class not stated)
[3] = Western blot, 24 hours of compound treatment, compounds tested at 50 nM and 500 nM (concentration for the table not stated)

T1 sequence (Q96SW2 whole entry): as the sequence (Q96SW2 whole entry) above

| inhibition at 0.5 µM [1] | inhibition at 2 µM [1] | SMILES | GSPT1 substrate protein remaining % (GSPT1; [2]) | IKZF 1 substrate protein remaining % (IKZF1; [2]) | Wee1 substrate protein remaining % (WEE1; [2]) | IKZF3 substrate protein remaining % (IKZF3; [2]) | CK1α substrate protein remaining % (CK1α; [2]) | IKZF2 substrate protein remaining % (IKZF2; [2]) | GSPT1 substrate protein remaining % (GSPT1; [3]) | IKZF 1 substrate protein remaining % (IKZF1; [3]) | Wee1 substrate protein remaining % (WEE1; [3]) | IKZF3 substrate protein remaining % (IKZF3; [3]) | CK1α substrate protein remaining % (CK1α; [3]) | IKZF2 substrate protein remaining % (IKZF2; [3]) |
| --- | --- | --- | --- | --- | --- | --- | --- | --- | --- | --- | --- | --- | --- | --- |
| 60 to 80% | 80 to 100% | Cc1csc2ncnc(C3=CCN(Cc4ccc5c(c4)CN(C4CCC(=O)NC4=O)C5=S)CC3)c12 (stereo not drawn) [GT-09315, 3-(5-((4-(5-methylthieno[2,3-d]pyrimidin-4-yl)-3,6-dihydropyridin-1(2H)-yl)methyl)-1-thioxoisoindolin-2-yl)piperidine-2,6-dione] | A (0% ≤ substrate protein remaining % ≤ 80%) | A (0% ≤ substrate protein remaining % ≤ 80%) | B (80%< substrate protein remaining %≤ 100%) | A (0% ≤ substrate protein remaining % ≤ 80%) | B (80%< substrate protein remaining %≤ 100%) | B (80%< substrate protein remaining %≤ 100%) |  |  |  |  |  |  |
| 30 to 40% | 60 to 80% | O=C1CCC(N2Cc3c(CN4CCN(C(c5ccccc5)c5ccccc5)CC4)cccc3C2=S)C(=O)N1 (stereo not drawn) [GT-08191, 3-(4-((4-benzhydrylpiperazin-1-yl)methyl)-1-thioxoisoindolin-2-yl)piperidine-2,6-dione] |  |  |  |  |  |  | A (0% ≤ substrate protein remaining % ≤ 80%) | B (80%< substrate protein remaining %≤ 100%) | B (80%< substrate protein remaining %≤ 100%) | B (80%< substrate protein remaining %≤ 100%) | B (80%< substrate protein remaining %≤ 100%) | B (80%< substrate protein remaining %≤ 100%) |
| 40 to 53% | 60 to 80% | O=C1CCC(N2Cc3c(CN4CCN(c5ccc(Cl)c(Cl)c5)CC4)cccc3C2=S)C(=O)N1 (stereo not drawn) [GT-08502, 3-(4-((4-(3,4-dichlorophenyl)piperazin-1-yl)methyl)-1-thioxoisoindolin-2-yl)piperidine-2,6-dione] |  |  |  |  |  |  | A (0% ≤ substrate protein remaining % ≤ 80%) | B (80%< substrate protein remaining %≤ 100%) | A (0% ≤ substrate protein remaining % ≤ 80%) | B (80%< substrate protein remaining %≤ 100%) | B (80%< substrate protein remaining %≤ 100%) | A (0% ≤ substrate protein remaining % ≤ 80%) |
| 60 to 80% | 80 to 100% | O=C1CCC(N2Cc3c(CN4CCN(c5c(Cl)cncc5Br)CC4)cccc3C2=S)C(=O)N1 (stereo not drawn) [GT-08801, 3-(4-((4-(3-bromo-5-chloropyridin-4-yl)piperazin-1-yl)methyl)-1-thioxoisoindolin-2-yl)piperidine-2,6-dione] |  |  |  |  |  |  | B (80%< substrate protein remaining %≤ 100%) | B (80%< substrate protein remaining %≤ 100%) | A (0% ≤ substrate protein remaining % ≤ 80%) | B (80%< substrate protein remaining %≤ 100%) | B (80%< substrate protein remaining %≤ 100%) | B (80%< substrate protein remaining %≤ 100%) |
| 60 to 80% | 80 to 100% | O=C1CCC(N2Cc3cc(CN4CCN(c5nc(N6CCOCC6)nc6ccsc56)CC4)ccc3C2=S)C(=O)N1 (stereo not drawn) [GT-09333, 3-(5-((4-(2-morpholinothieno[3,2-d]pyrimidin-4-yl)piperazin-1-yl)methyl)-1-thioxoisoindolin-2-yl)piperidine-2,6-dione] | A (0% ≤ substrate protein remaining % ≤ 80%) | A (0% ≤ substrate protein remaining % ≤ 80%) | B (80%< substrate protein remaining %≤ 100%) | A (0% ≤ substrate protein remaining % ≤ 80%) | B (80%< substrate protein remaining %≤ 100%) | B (80%< substrate protein remaining %≤ 100%) |  |  |  |  |  |  |
| 30 to 40% | 80 to 100% | O=C1CCC(N2Cc3cc(CN4CCCN(C(c5ccccc5)c5ccccc5)CC4)ccc3C2=S)C(=O)N1 (stereo not drawn) [GT-07848, 3-(5-((4-benzhydryl-1,4-diazepan-1-yl)methyl)-1-thioxoisoindolin-2-yl)piperidine-2,6-dione] |  |  |  |  |  |  | A (0% ≤ substrate protein remaining % ≤ 80%) | B (80%< substrate protein remaining %≤ 100%) | B (80%< substrate protein remaining %≤ 100%) | A (0% ≤ substrate protein remaining % ≤ 80%) | B (80%< substrate protein remaining %≤ 100%) | A (0% ≤ substrate protein remaining % ≤ 80%) |
| 30 to 40% | 53 to 60% | Cc1ccc(N2CCN(Cc3cccc4c3CN(C3CCC(=O)NC3=O)C4=S)CC2)cc1 (stereo not drawn) [GT-08499, 3-(1-thioxo-4-((4-(p-tolyl)piperazin-1-yl)methyl)isoindolin-2-yl)piperidine-2,6-dione] |  |  |  |  |  |  | A (0% ≤ substrate protein remaining % ≤ 80%) | B (80%< substrate protein remaining %≤ 100%) | A (0% ≤ substrate protein remaining % ≤ 80%) | B (80%< substrate protein remaining %≤ 100%) | B (80%< substrate protein remaining %≤ 100%) | A (0% ≤ substrate protein remaining % ≤ 80%) |
| 60 to 80% | 80 to 100% | O=C1CCC(N2Cc3c(CN4CCC(c5ncc6ccsc6n5)CC4)cccc3C2=S)C(=O)N1 (stereo not drawn) [GT-08936, 3-(4-((4-(thieno[2,3-d]pyrimidin-2-yl)piperidin-1-yl)methyl)-1-thioxoisoindolin-2-yl)piperidine-2,6-dione] | A (0% ≤ substrate protein remaining % ≤ 80%) | A (0% ≤ substrate protein remaining % ≤ 80%) | A (0% ≤ substrate protein remaining % ≤ 80%) | B (80%< substrate protein remaining %≤ 100%) | B (80%< substrate protein remaining %≤ 100%) | B (80%< substrate protein remaining %≤ 100%) |  |  |  |  |  |  |
| 60 to 80% | 80 to 100% | O=C1CCC(N2Cc3c(CN4CCC(c5cccc6cnccc56)CC4)cccc3C2=S)C(=O)N1 (stereo not drawn) [GT-08857, 3-(4-((4-(isoquinolin-5-yl)piperidin-1-yl)methyl)-1-thioxoisoindolin-2-yl)piperidine-2,6-dione] | B (80%< substrate protein remaining %≤ 100%) | B (80%< substrate protein remaining %≤ 100%) | A (0% ≤ substrate protein remaining % ≤ 80%) | A (0% ≤ substrate protein remaining % ≤ 80%) | B (80%< substrate protein remaining %≤ 100%) | B (80%< substrate protein remaining %≤ 100%) |  |  |  |  |  |  |
| 60 to 80% | 80 to 100% | O=C1CCC(N2Cc3cc(CN4CCC(c5ncnc6sc7c(c56)CCC7)CC4)ccc3C2=S)C(=O)N1 (stereo not drawn) [GT-09311, 3-(5-((4-(6,7-dihydro-5H-cyclopenta[4,5]thieno[2,3-d]pyrimidin-4-yl)piperidin-1-yl)methyl)-1-thioxoisoindolin-2-yl)piperidine-2,6-dione] | A (0% ≤ substrate protein remaining % ≤ 80%) | A (0% ≤ substrate protein remaining % ≤ 80%) | A (0% ≤ substrate protein remaining % ≤ 80%) | A (0% ≤ substrate protein remaining % ≤ 80%) | B (80%< substrate protein remaining %≤ 100%) | B (80%< substrate protein remaining %≤ 100%) |  |  |  |  |  |  |
| 60 to 80% | 80 to 100% | Cc1cc(N2CCN(Cc3ccc4c(c3)CN(C3CCC(=O)NC3=O)C4=S)CC2)ccn1 (stereo not drawn) [GT-09234, 3-(5-((4-(2-methylpyridin-4-yl)piperazin-1-yl)methyl)-1-thioxoisoindolin-2-yl)piperidine-2,6-dione] |  |  |  |  |  |  | A (0% ≤ substrate protein remaining % ≤ 80%) | A (0% ≤ substrate protein remaining % ≤ 80%) | A (0% ≤ substrate protein remaining % ≤ 80%) | A (0% ≤ substrate protein remaining % ≤ 80%) | A (0% ≤ substrate protein remaining % ≤ 80%) | A (0% ≤ substrate protein remaining % ≤ 80%) |

| SMILES | inhibition at 0.5 µM [1] | inhibition at 2 µM [1] | GSPT1 substrate protein remaining % (GSPT1; [2]) | IKZF 1 substrate protein remaining % (IKZF1; [2]) | Wee1 substrate protein remaining % (WEE1; [2]) | IKZF3 substrate protein remaining % (IKZF3; [2]) | CK1α substrate protein remaining % (CK1α; [2]) | IKZF2 substrate protein remaining % (IKZF2; [2]) | GSPT1 substrate protein remaining % (GSPT1; [3]) | IKZF 1 substrate protein remaining % (IKZF1; [3]) | Wee1 substrate protein remaining % (WEE1; [3]) | IKZF3 substrate protein remaining % (IKZF3; [3]) | CK1α substrate protein remaining % (CK1α; [3]) | IKZF2 substrate protein remaining % (IKZF2; [3]) |
| --- | --- | --- | --- | --- | --- | --- | --- | --- | --- | --- | --- | --- | --- | --- |
| O=C1CCC(N2Cc3c(CN4CC=C(c5cncc(Cl)c5Cl)CC4)cccc3C2=S)C(=O)N1 (stereo not drawn) [GT-08460, 3-(4-((4,5-dichloro-3',6'-dihydro-[3,4'-bipyridin]-1'(2'H)-yl)methyl)-1-thioxoisoindolin-2-yl)piperidine-2,6-dione] | 60 to 80% | 80 to 100% |  |  |  |  |  |  | B (80%< substrate protein remaining %≤ 100%) | B (80%< substrate protein remaining %≤ 100%) | A (0% ≤ substrate protein remaining % ≤ 80%) | A (0% ≤ substrate protein remaining % ≤ 80%) | B (80%< substrate protein remaining %≤ 100%) | B (80%< substrate protein remaining %≤ 100%) |

Source: EP4745135A1 (Gluetacs Therapeutics (Shanghai) Co., Ltd., priority 2023, dated 2025)
